Each structure is given as a SMILES string.

In assay [1] the test system is Anti-BCMA CAR-expressing T cells. The experiment in a line: ATAC-seq chromatin accessibility in stimulated anti-BCMA CAR T cells in the presence or absence of lenalidomide. Type of assay: cell-based. The protocol:
(§1) Anti-BCMA CAR-expressing T cells, generated from four (4) different independent donors, were stimulated with 50 μg/mL BCMA-conjugated beads for 24 hours (24 hr+stim) or 7 days (d7+stim), or cultured without stimulation for 24 hours (24 hr), in the presence or absence of lenalidomide. The CAR-expressing cells were assessed by RNA sequencing (RNA-seq) for gene expression and assayed for transposase-accessible chromatin using sequencing (ATAC-seq) for chromatin accessibility analysis.
(§2) RNA-seq was performed on the complementary DNA (cDNA) samples prepared from the RNA isolated from the cultured anti-BCMA CAR-expressing cells. ATAC-seq was performed generally as described in Buenrostro et al., Nat Methods. (2013) 10(12): 1213-1218. […]
(§3) Principal component analysis (PCA) was performed for the RNA-seq and ATAC-seq data sets, generated from DESeq2-normalized counts. Differential expression (DE, for RNA-seq) or consensus peak accessibility (DA, for ATAC-seq) were calculated, modeling donor effects (Donors 1-4) and treatment effects (lenalidomide vs. vehicle) at 24 hours and day 7. […] Gene ontology (GO) enrichment analysis was performed and activation z-score was determined on the subset of genes differentially expressed at q≤0.1 using Ingenuity Pathway Analysis software (Qiagen, Inc.), accounting for donor effects within each treatment condition.

For assay [2] the test system is unchanged. The experiment in a line: RNA-seq gene expression in stimulated anti-BCMA CAR T cells in the presence or absence of lenalidomide. Type of assay: cell-based. How it is done:
as §1, §2, §3

As to `Nc1cccc2c1CN(C1CCC(=O)NC1=O)C2=O` (stereo not shown) [lenalidomide], in assay [1] (7 days of culture with BCMA-conjugated bead stimulation, lenalidomide vs. vehicle, 4 donors, cut off q≤0.1), the “chromatin accessibility peaks changed” value amounted to 2804 peaks. Further, the “motif enrichment analysis of peaks (transcription factor binding motifs of T cell activation and signaling)” value in assay [1] (day 7 cultures with stimulation, HOMER, consensus peakset as background) is “enriched in peaks with increased accessibility”. In addition, the “effect on biological signaling pathways (differentially expressed genes)” value in assay [2] (24 hours or 7 days with stimulation, Ingenuity Pathway Analysis) was “increased expression of genes involved in T cell activation and signaling”. Besides, in assay [2] (7 days of culture with BCMA-conjugated bead stimulation, lenalidomide vs. vehicle, 4 donors, cut off q≤0.05 and log 2 fold change≥0.5), the “total genes altered as shown by gene expression changes” value is 583 genes.

The values above are taken from patent US11821027B2, “Epigenetic analysis of cell therapy and related methods” (Juno Therapeutics, Inc., priority 2017, dated 2023).
